# Test results reported in patent US8216610B2, “Oral paracetamol formulations” (Imaginot Pty Ltd., priority 2004, dated 2012).
# Where a name gives a salt, the structure may show the parent alone.
# What was measured:
# [1] = cited from earlier work
# [2] = Solubility in water; type: physicochemical; conditions: on a weight for weight basis; doses of the combination tablet
# [3] = cited from earlier work; remark: listed apart in the source
SMILES,paracetamol concentration effective for antipyresis ([1]; Rumack et al 1978) [µg/mL],"range of paracetamol plasma concentrations for effective analgesia ([1]; humans, Prescott 1974) [µg/mL]",volume needed for total dissolution of the dose [2],dependence of solubility on pH [3],solubility in water [3]
"CC(=O)Nc1ccc(O)cc1 [paracetamol, N-acetyl-p-aminophenol]",10 to 20,5 to 20,around 27 mL,independent of the pH,~14 mg/mL
COc1cccc(C2(O)CCCCC2CN(C)C)c1 (centres unmarked) [tramadol hydrochloride],–,–,around 1 mL,reduced as the pH increases,around 30 mg/mL
